Laboratory results taken from patent publication US6451340B1, “Nucleotide analog compositions” (Gilead Sciences, Inc., priority 1997, dated 2002).
Where two headings read alike, the source gives them in different places.

Assays:
[1] = AD solubility in crystallization solvents; assay type: physicochemical; conditions: for solubility: organic solvent or mixture
Procedure: Crystalline AD is prepared by allowing crystal formation in an AD composition, usually from a solution of AD in a crystallization mixture containing at least about 6%, typically at least about 30%, usually at least about 35%, of AD. One would ordinarily conduct crystallizations by preparing an AD solution comprising about 6-45% AD and about 55-94% crystallization solvent. […] AD is not freely soluble in some crystallization solvents, e.g., AD solubility in di-n-butyl ether is less than about 0.3 mg/mL, and adding these solvents to an AD solution increases the degree of saturation or supersaturation of the solution. One usually uses organic solutions containing an amount of AD that is near the upper solubility limit in the crystallization solvent(s). The lower amount, about 6%, is the minimum amount of AD needed in a solution to consistently yield crystals. Certain solvents, e.g., methanol or CH2Cl2, can contain more than about 50% AD.
One usually prepares Form 3 crystals by allowing crystals to grow in an anhydrous methanol solution of AD. One obtains AD in methanol by mixing sufficient noncrystalline or crystalline AD in methanol for about 10-15 minutes at room temperature or as needed to dissolve the solid AD to obtain a solution having at least about 100-150 mg AD/mL methanol. AD solubility in methanol at room temperature is greater than 600 mg/mL. Crystallization then proceeds for about 4 to about 48 hours at a temperature of about −5° to about 25°, usually at about 0-23°.
Recrystallization generally begins shortly after completion of adding and mixing the di-n-butyl ether and one then allows recrystallization to proceed for about 4-36 hours, usually about 6-24 hours. Additional yield of crystals from recrystallization at room temperature for about 4-36 hours is usually obtained by cooling the recrystallization mixture to about 4-10° and allowing the mixture to stand about 1-6 hours at the reduced temperature. Usually, the amount of AD one uses in a recrystallization will be sufficient to form a saturated or nearly saturated solution, i.e., about 0.4 g/mL using acetone. Dissolution of AD in acetone is complete in about 2-8 minutes using moderate agitation. Material remaining undissolved after this initial mixing period is removed and discarded, followed by adding the second less polar solvent of the solvent pair to the mixture containing the first crystallization solvent.
One conducts a Form 3 recrystallization in methanol in the same manner as described herein for preparation of Form 3 crystals. A saturated or nearly saturated methanol solution is used to prepare the crystals, i.e., at least about 0.6 g/mL AD.

[2] = L-carnitine levels in patients taking AD; assay type: in vivo
Source text: Formulations containing crystalline AD and an excipient(s) may also contain L-carnitine or salts of L-carnitine, e.g., L-carnitine-L-tartrate (2:1). […] Tablets containing L-carnitine-L-tartrate and AD may decrease the effect of pivalic acid on L-carnitine depletion in patients taking AD. The amount of L-carnitine to be included will be apparent to the clinician in view of the extent of depletion in patients.

saturated or nearly saturated solution of AD ([1]; acetone): about 0.4 g/mL
solubility ([1]; di-n-butyl ether, read-out: AD solubility in di-n-butyl ether): < 0.3 mg/mL
saturated or nearly saturated solution of AD ([1]; methanol): at least 0.6 g/mL
amount of AD the solvent can contain ([1]; methanol or CH2Cl2, % w/w): more than 50%
upper limit of solubility of AD ([1]; most crystallization solvents, room temperature, % w/w): 10-41%
solubility ([1]; methanol, room temperature, read-out: AD solubility in methanol): > 600 mg/mL
SMILES: CC(C)(C)C(=O)OCOP(=O)(COCCn1cnc2c(N)ncnc21)OCOC(=O)C(C)(C)C [AD, 9-[2-[[bis[(pivaloyloxy)methoxy]phosphinyl]methoxy]ethyl]adenine]
effect on L-carnitine levels (release of pivalic acid in vivo) [2]: appears to lower the levels of L-carnitine
